US20200384003A1, “TRITERPENOID-CONTAINING PHARMACEUTICAL COMPOSITION AND USE THEREOF” (SHANGHAI LANMU CHEMICALS CO., LTD., priority 2017, published 2020)

Key:
[1] = biological target: T1, mutated lens protein (αB-crystallin R120G) (Homo sapiens, UniProt P02511, R120G); assay: Intracellular mutated lens protein aggregation inhibition experiment in transfected HeLa cells (Example 21); type: cell-based; details: 10 μM, treated 3.5 hours, then 6.5 h normal medium, fewer + = better
T1 construct: expressed in transfected cells; host or cells: HeLa
T1 sequence (P02511 1-175 R120G): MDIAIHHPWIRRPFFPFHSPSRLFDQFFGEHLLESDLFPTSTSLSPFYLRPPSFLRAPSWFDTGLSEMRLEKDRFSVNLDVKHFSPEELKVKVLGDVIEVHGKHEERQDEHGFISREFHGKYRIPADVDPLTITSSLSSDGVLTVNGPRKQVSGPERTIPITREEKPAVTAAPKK
Description: In this example, apart of the specific compounds obtained in Example 19 and Example 20 were selected for intracellular mutated lens protein (αB-crystallin R120G) aggregation inhibition experiment (experimental method was described in Chinese patent CN201580057679). The aggregation inhibition activities of compound I and compound II in the present invention on lens protein mutants were evaluated to screen a compound which was effective in treating related disease such as cataract.
The tumor cell line HeLa was selected as a host cell transfected with the mutant lens protein (αB-crystallin […]) expression plasmid, the medium was DMEM with […], and the culture conditions were 37° C., saturated humidity and 5% carbon dioxide cell incubator. Mycoplasma was negative. The transfection process is that the appropriate number of HeLa cells were inoculated on the pre-coated slides. When fully adherent cells grew to about 75% cell density, the expression vector was transfected with liposome. After 4 hours of transfection, the medium was changed to normal medium. Then the HeLa cells were cultured in the cell incubator for 13 hours to induce the expression of exogenous mutant lens protein. After changing the medium, the replaced new medium contained various compounds of the formula I and formula II of the present invention to be tested (DMSO was used as solvent in all mother fluid), wherein the final concentration of each compound was 10 μM, the negative control was 1.5% DMSO solvent, and the positive control was lanosterol (10 μM). The HeLa cells were treated with the medium containing the test compound, 1.5% DMSO solvent and lanosterol for 3.5 hours, respectively, and the normal fresh medium containing no DMSO, test compound or lanosterol was exchanged and the cells were cultured for another 6.5 h, then Anti-p62 antibody and DAPI were used for routine cellular immunofluorescence detection. The field of vision of three positions per slide was randomly selected, the ratio of cells containing aggregated crystalline proteins (lens protein aggregates) was calculated, and the effect of each test compound on intracellular aggregation of mutant lens proteins was finally determined, the results were shown in Table 19.

[2] = system: diabetic metabolite cataract; assay: Therapeutic effect on diabetic metabolite cataract, streptozotocin model (Example 11); type: in vivo, SD rats; details: right eye of diabetic rat, pictures before and after 2 months of treatment (FIG. 25-29)
[3] = Pharmacokinetic study, drug in aqueous humor after eye glass cavity injection (Example 5); type: in vivo; details: SD rats, 5 μl injected into each glass cavity, detected 10 days after the surgery
Description: SD rats (about 10 weeks old, male or female) were anesthetized by intraperitoneal injection of pentobarbital sodium and pupil was dilated, then eye glass cavity injection surgery was performed. All animals were injected with the same kind of drugs in both eyes. The amount of drug injected into each glass cavity was 5 μl, and the number of test animals per drug formulation (Example 1, Example 2 and Comparative Example 1) was four, and the drug metabolism in the aqueous humor was detected 10 days after the surgery.

[4] = Heat stability at 80° C. versus 4° C., HPLC and appearance (Example 18); type: physicochemical; details: for appearance after heat storage: compared with 4° C.
Description: The heatl stabilities of inotodiol and trametenolic acid were tested, and lanosterol was used as a reference at the same time.

| SMILES | Inhibitory effect (percentage of cells containing aggregated proteins) [1] | other results |
| --- | --- | --- |
| CC(C)=CCCC(C=O)[C@H]1CC[C@@]2(C)C3=C(CC[C@]12C)[C@@]1(C)CC[C@H](O)C(C)(C)C1CC3 (some centres unmarked) [Compound 2″] | ++ (>30% and <45% of the cells in the field of vision contained protein aggregates) | – |
| C[C@H](C(O)/C=C/C(C)(C)O)[C@H]1CC[C@@]2(C)C3=C(CC[C@]12C)[C@@]1(C)CC[C@H](O)C(C)(C)C1CC3 (some centres unmarked) [Compound 4″] | + (<30% of the cells in the field of vision contained protein aggregates) | – |
| C[C@H](C(O)C/C=N/O)[C@H]1CC[C@@]2(C)C3=C(CC[C@]12C)[C@@]1(C)CC[C@H](O)C(C)(C)C1CC3 (some centres unmarked) [Compound 5] | + (<30% of the cells in the field of vision contained protein aggregates) | – |
| CC(C)=CCC[C@H](C=O)[C@H]1CC[C@@]2(C)C3=C(CC[C@]12C)[C@@]1(C)CCC(=O)C(C)(C)C1CC3 (some centres unmarked) [Compound 5″] | ++ (>30% and <45% of the cells in the field of vision contained protein aggregates) | – |
| CC(=O)[C@@H](C)[C@H]1CC[C@@]2(C)C3=C(CC[C@]12C)[C@@]1(C)CC[C@H](O)C(C)(C)C1CC3 (some centres unmarked) [Compound 6″] | ++ (>30% and <45% of the cells in the field of vision contained protein aggregates) | – |
| C=C(C)C(=O)CC[C@@H](C(=O)O)[C@H]1CC[C@@]2(C)C3=C(CC[C@]12C)[C@@]1(C)CC[C@H](O)C(C)(C)C1CC3 (some centres unmarked) [Compound 7″] | ++ (>30% and <45% of the cells in the field of vision contained protein aggregates) | – |
| COC(C)(C)C(O)CC(O)[C@@H](C)[C@H]1CC[C@@]2(C)C3=C(CC[C@]12C)[C@@]1(C)CC[C@H](O)C(C)(C)C1CC3 (some centres unmarked) [Compound 8″] | ++ (>30% and <45% of the cells in the field of vision contained protein aggregates) | – |
| CO[C@H]1CC[C@]2(C)C3=C(CCC2C1(C)C)[C@]1(C)CC[C@H]([C@H](C)C(O)CCC(C)(C)OC)[C@@]1(C)CC3 (some centres unmarked) [Compound 9] | ++ (>30% and <45% of the cells in the field of vision contained protein aggregates) | – |
| CC(=O)O[C@H]1CC[C@]2(C)C3=C(CCC2C1(C)C)[C@]1(C)CC[C@H]([C@H](C)C(O)CC2OC2(C)C)[C@@]1(C)CC3 (some centres unmarked) [Compound 10] | + (<30% of the cells in the field of vision contained protein aggregates) | – |
| C[C@H](C(O)CC(Br)C(C)(C)O)[C@H]1CC[C@@]2(C)C3=C(CC[C@]12C)[C@@]1(C)CC[C@H](O)C(C)(C)C1CC3 (some centres unmarked) [Compound 13] | ++ (>30% and <45% of the cells in the field of vision contained protein aggregates) | – |
| C[C@H](C(O)CCC(C)(C)O)[C@H]1CC[C@@]2(C)C3=C(CC[C@]12C)[C@@]1(C)CC[C@H](O)C(C)(C)C1CC3 (some centres unmarked) [Compound 15] | + (<30% of the cells in the field of vision contained protein aggregates) | – |
| CC(C)(O)CCC[C@@H](C(=O)O)[C@H]1CC[C@@]2(C)C3=C(CC[C@]12C)[C@@]1(C)CC[C@H](O)C(C)(C)C1CC3 (some centres unmarked) [Compound 15′] | + (<30% of the cells in the field of vision contained protein aggregates) | – |
| C[C@H](C(O)CC(O)C(C)(C)O)[C@H]1CC[C@@]2(C)C3=C(CC[C@]12C)[C@@]1(C)CC[C@H](O)C(C)(C)C1CC3 (some centres unmarked) [Compound 17] | ++ (>30% and <45% of the cells in the field of vision contained protein aggregates) | – |
| C=C(C)C(=O)CC(O)C(C)[C@H]1CC[C@@]2(C)C3=C(CC[C@]12C)[C@@]1(C)CC[C@H](O)C(C)(C)C1CC3 (some centres unmarked) [Compound 17″] | ++ (>30% and <45% of the cells in the field of vision contained protein aggregates) | – |
| C[C@H](C(O)CC(=O)C(C)(C)O)[C@H]1CC[C@@]2(C)C3=C(CC[C@]12C)[C@@]1(C)CC[C@H](O)C(C)(C)C1CC3 (some centres unmarked) [Compound 20] | ++ (>30% and <45% of the cells in the field of vision contained protein aggregates) | – |
| CC(C)(O)C(=O)CC[C@@H](C(=O)O)[C@H]1CC[C@@]2(C)C3=C(CC[C@]12C)[C@@]1(C)CC[C@H](O)C(C)(C)C1CC3 (some centres unmarked) [Compound 20′] | ++ (>30% and <45% of the cells in the field of vision contained protein aggregates) | – |
| C[C@H](C(O)CCC(C)(C)O)[C@H]1CC[C@@]2(C)C3=CCC4C(C)(C)[C@@H](O)CC[C@]4(C)C3=CC[C@]12C (some centres unmarked) [Compound 21] | + (<30% of the cells in the field of vision contained protein aggregates) | – |
| CC(C)(O)CCC[C@@H](C(=O)O)[C@H]1CC[C@@]2(C)C3=CCC4C(C)(C)[C@@H](O)CC[C@]4(C)C3=CC[C@]12C (some centres unmarked) [Compound 21′] | ++ (>30% and <45% of the cells in the field of vision contained protein aggregates) | – |
| C[C@H](C(O)CCC(C)(C)O)[C@H]1CC[C@@]2(C)C3=C(CC[C@]12C)[C@@]1(C)C[C@@H](F)[C@H](O)C(C)(C)C1CC3 (some centres unmarked) [Compound 23] | + (<30% of the cells in the field of vision contained protein aggregates) | – |
| C[C@H](C(O)CCC(C)(C)O)[C@H]1CC[C@@]2(C)C3=C(CC[C@]12C)[C@@]1(C)C[C@@H](F)[C@@H](O)C(C)(C)C1CC3 (some centres unmarked) [Compound 24] | + (<30% of the cells in the field of vision contained protein aggregates) | – |
| C[C@H](C(O)CCC(C)(C)O)[C@H]1CC[C@@]2(C)C3=C(CC[C@]12C)[C@@]1(C)C[C@@H](O)[C@H](O)C(C)(C)C1CC3 (some centres unmarked) [Compound 25] | + (<30% of the cells in the field of vision contained protein aggregates) | – |
| C/C(=C\CC(O)[C@@H](C)[C@H]1CC[C@@]2(C)C3=C(CC[C@]12C)[C@@]1(C)CC[C@H](O)C(C)(C)C1CC3)C(=O)O (some centres unmarked) [Compound 27] | + (<30% of the cells in the field of vision contained protein aggregates) | – |
| C/C(=C\CC(O)[C@@H](C)[C@H]1CC[C@@]2(C)C3=C(CC[C@]12C)[C@@]1(C)CC[C@H](O)C(C)(C)C1CC3)CO (some centres unmarked) [Compound 32] | + (<30% of the cells in the field of vision contained protein aggregates) | – |
| C[C@H](C(O)C/C=C/C(=O)O)[C@H]1CC[C@@]2(C)C3=C(CC[C@]12C)[C@@]1(C)CC[C@H](O)C(C)(C)C1CC3 (some centres unmarked) [Compound 34] | + (<30% of the cells in the field of vision contained protein aggregates) | – |
| C[C@H](C(O)C/C=C/C(=O)O)[C@H]1CC[C@@]2(C)C3=C(CC[C@]12C)[C@@]1(C)C[C@@H](F)[C@H](O)C(C)(C)C1CC3 (some centres unmarked) [Compound 42] | + (<30% of the cells in the field of vision contained protein aggregates) | – |
| CC(C)=CCC[C@@H](C(=O)O)[C@H]1CC[C@@]2(C)C3=C(CC[C@]12C)[C@@]1(C)CC[C@H](O)C(C)(C)C1CC3 (some centres unmarked) [Trametenolic acid, trametenolic acid] | + (<30% of the cells in the field of vision contained protein aggregates) | turbid area of lens / course of cataract after administration [2]: reduced in a large extent; decrease of drug concentration in aqueous humor compared with initial concentration immediately after injection [3]: 8%±1.5%; appearance after heat storage ([4]; 80° C. for 1 week): did not change; purity after heat storage ([4]; 80° C. for 2 weeks): above 93%; appearance after heat storage ([4]; 80° C. for 2 weeks): no significant change in appearance and purity; content after heat storage ([4]; 80° C. for 1 day, HPLC): 97%; content after heat storage ([4]; 80° C. for 2 day, HPLC): 96%; content after heat storage ([4]; 80° C. for 3 day, HPLC): 96%; initial experiment purity ([4]; stored at 4° C., HPLC): 98% |
